Results from US12653776B2, “Methods of treatment of cancer by continuous infusion of coenzyme Q10” (priority 2013, dated 2026).

Assay: First-in-human Phase 1 study (CTL0510), 4-hour IV infusion 3 times weekly: safety
Settings: in vivo
Protocol: The first-in-human Phase 1 study with coenzyme Q10 nanosuspension (40 mg/ml) was conducted in 50 patients with advanced solid tumors. The objectives were to assess the safety, maximum tolerated dose, PK and PD of coenzyme Q10, specifically a 4% coenzyme Q10 nanosuspension formulation (as described in WO 2011/112900, the entire contents of which are expressly incorporated herein by reference), administered as a 4-hour IV infusion 3 times weekly in 28-day cycles. Nine dose levels were explored ranting from 5.62 to 139 mg/kg. Plasma concentration profiles and PK parameters were determined from blood samples collected pre-dose and at intervals to 48 hours post-dose.

## Vitamin K [reference compound]
  INR after Vitamin K administration: all INRs decreased to grade 1 or resolved
